Measured values: paper PMC2813863, “In Vivo Evaluation of α7 Nicotinic Acetylcholine Receptor Agonists [^11C]A-582941 and [^11C]A-844606 in Mice and Conscious Monkeys” (PLoS ONE, 2010)
Like-named read-outs stand apart in the source and are kept apart here.

Assay type: in vivo, mice
Conditions: mice, i.v.
Procedure: Each tracer was intravenously injected into mice, and then the animals were killed by cervical dislocation at 1, 5, 15, 30 and 60 min after injection (n = 4). The body weight of the mice was 34.7±1.2 g. The injected doses of tracers were 2 MBq/0.049–0.051 nmol. Blood was collected by heart puncture and tissues were harvested. The carbon-11 in the samples was counted with an auto-gamma-counter (LKB Wallac Compu-gamma 1282CS, Turku, Finland) and the tissues were weighed. The tissue uptake of carbon-11 was expressed as the %ID/g.

In the case of `[11CH3]N1CC2CN(c3ccc(-c4ccccc4)nn3)CC2C1` (stereo not drawn) [[^11C]A-582941, 2-[^11C]Methyl-5-[6-phenylpyridazine-3-yl]octahydropyrrolo[3,4-c]pyrrole], the “time of peak radioactivity in the brain” value is reported as 5 min, the “% Injected dose/g tissue, Blood” value (1 min after injection) is reported as 1.84±0.43 % Injected dose/g tissue and the “% Injected dose/g tissue, Brain” value (1 min after injection) is reported as 2.61±0.33 % Injected dose/g tissue. The “% Injected dose/g tissue, Heart” value (1 min after injection) was 4.33±0.82 % Injected dose/g tissue, the “% Injected dose/g tissue, Kidney” value (1 min after injection) was 13.87±1.58 % Injected dose/g tissue and the “% Injected dose/g tissue, Liver” value (1 min after injection) was 3.59±0.45 % Injected dose/g tissue. The “% Injected dose/g tissue, Lung” value (1 min after injection) was 18.09±4.18 % Injected dose/g tissue, the “% Injected dose/g tissue, Muscle” value (1 min after injection) was 2.02±0.34 % Injected dose/g tissue and the “% Injected dose/g tissue, Pancreas” value (1 min after injection) was 4.65±0.76 % Injected dose/g tissue. For the same compound, the “% Injected dose/g tissue, S. intestine” value (1 min after injection) was 3.13±0.51 % Injected dose/g tissue, the “% Injected dose/g tissue, Spleen” value (1 min after injection) was 2.70±0.31 % Injected dose/g tissue and the “% Injected dose/g tissue, Blood” value (5 min after injection) was 0.89±0.04 % Injected dose/g tissue. For the same compound, the “% Injected dose/g tissue, Brain” value (5 min after injection) was 3.92±0.49 % Injected dose/g tissue, the “% Injected dose/g tissue, Heart” value (5 min after injection) was 2.16±0.13 % Injected dose/g tissue and the “% Injected dose/g tissue, Kidney” value (5 min after injection) was 8.77±0.79 % Injected dose/g tissue. For the same compound, the “% Injected dose/g tissue, Liver” value (5 min after injection) was 10.52±0.69 % Injected dose/g tissue, the “% Injected dose/g tissue, Lung” value (5 min after injection) was 12.52±8.59 % Injected dose/g tissue and the “% Injected dose/g tissue, Muscle” value (5 min after injection) was 1.40±0.16 % Injected dose/g tissue. The “% Injected dose/g tissue, Pancreas” value (5 min after injection) was 7.47±0.54 % Injected dose/g tissue, the “% Injected dose/g tissue, S. intestine” value (5 min after injection) was 4.49±0.60 % Injected dose/g tissue and the “% Injected dose/g tissue, Spleen” value (5 min after injection) was 5.53±0.38 % Injected dose/g tissue. The “% Injected dose/g tissue, Blood” value (15 min after injection) was 0.76±0.06 % Injected dose/g tissue, the “% Injected dose/g tissue, Brain” value (15 min after injection) was 3.63±0.28 % Injected dose/g tissue and the “% Injected dose/g tissue, Heart” value (15 min after injection) was 1.72±0.17 % Injected dose/g tissue. For the same compound, the “% Injected dose/g tissue, Kidney” value (15 min after injection) was 6.02±0.97 % Injected dose/g tissue, the “% Injected dose/g tissue, Liver” value (15 min after injection) was 12.38±1.68 % Injected dose/g tissue and the “% Injected dose/g tissue, Lung” value (15 min after injection) was 7.02±0.10 % Injected dose/g tissue. For the same compound, the “% Injected dose/g tissue, Muscle” value (15 min after injection) was 1.06±0.09 % Injected dose/g tissue, the “% Injected dose/g tissue, Pancreas” value (15 min after injection) was 5.80±0.80 % Injected dose/g tissue and the “% Injected dose/g tissue, S. intestine” value (15 min after injection) was 4.61±0.60 % Injected dose/g tissue. The “% Injected dose/g tissue, Spleen” value (15 min after injection) was 5.13±0.72 % Injected dose/g tissue, the “% Injected dose/g tissue, Blood” value (30 min after injection) was 0.64±0.06 % Injected dose/g tissue and the “% Injected dose/g tissue, Brain” value (30 min after injection) was 2.68±0.29 % Injected dose/g tissue. The “% Injected dose/g tissue, Heart” value (30 min after injection) was 1.39±0.10 % Injected dose/g tissue, the “% Injected dose/g tissue, Kidney” value (30 min after injection) was 4.83±0.77 % Injected dose/g tissue and the “% Injected dose/g tissue, Liver” value (30 min after injection) was 9.87±0.80 % Injected dose/g tissue. For the same compound, the “% Injected dose/g tissue, Lung” value (30 min after injection) was 6.06±0.31 % Injected dose/g tissue, the “% Injected dose/g tissue, Muscle” value (30 min after injection) was 0.82±0.07 % Injected dose/g tissue and the “% Injected dose/g tissue, Pancreas” value (30 min after injection) was 4.68±0.51 % Injected dose/g tissue. For the same compound, the “% Injected dose/g tissue, S. intestine” value (30 min after injection) was 5.33±1.20 % Injected dose/g tissue, the “% Injected dose/g tissue, Spleen” value (30 min after injection) was 3.64±0.14 % Injected dose/g tissue and the “% Injected dose/g tissue, Blood” value (60 min after injection) was 0.57±0.05 % Injected dose/g tissue. For the same compound, the “% Injected dose/g tissue, Brain” value (60 min after injection) was 1.85±0.10 % Injected dose/g tissue, the “% Injected dose/g tissue, Heart” value (60 min after injection) was 1.02±0.08 % Injected dose/g tissue and the “% Injected dose/g tissue, Kidney” value (60 min after injection) was 3.74±0.20 % Injected dose/g tissue. For the same compound, the “% Injected dose/g tissue, Liver” value (60 min after injection) was 7.24±0.74 % Injected dose/g tissue, the “% Injected dose/g tissue, Lung” value (60 min after injection) was 4.13±0.15 % Injected dose/g tissue and the “% Injected dose/g tissue, Muscle” value (60 min after injection) was 0.66±0.05 % Injected dose/g tissue. For the same compound, the “% Injected dose/g tissue, Pancreas” value (60 min after injection) was 3.69±0.42 % Injected dose/g tissue, the “% Injected dose/g tissue, S. intestine” value (60 min after injection) was 4.53±1.21 % Injected dose/g tissue and the “% Injected dose/g tissue, Spleen” value (60 min after injection) was 2.89±0.90 % Injected dose/g tissue.
